Data taken from patent US12303473B1 (priority 2023, dated 2025).
Like-named read-outs stand apart in the source and are kept apart here.

Columns and labels:
adult patients with TRD = details: for depression rating based on mean PHQ-9 depression scores: "severe" at baseline, HBr after 2 weeks; for side effect: anxiety / side effect: gastrointestinal upset / side effect: insomnia: in vivo
Text: In the regular course of Applicants' general outpatient psychiatry practice, Applicants see many patients who suffer from Major Depressive Disorder (MDD) and may not have responded to two or more oral antidepressant medications. Applicants routinely administer the brief and commonly used Patient Health Questionnaire-9 (PHQ-9) scale before starting a new treatment, two weeks after starting treatment to measure initial response, and periodically thereafter.
Once-daily, XL bupropion HCl received FDA approval for the treatment of MDD in 2003 and for Seasonal Affective Disorder (SAD) in 2006.
The following study protocol was approved by the WCG-IRB institutional ethics committee and conducted in accordance with principles set forth in the Helsinki Declaration. […] The PHQ-9 is a reliable and valid clinical and research tool that measures functionality and depression severity, whereby scores of 5, 10, 15, and 20 correspond to mild, moderate, moderately severe, and severe depression and a 5-point change is considered clinically meaningful. Statistical analysis was performed using a within-subject, 2-tailed t-test with a significance level of p<0.05.

[1] = APLENZIN 348 mg once-daily, 10-day dosing; cited from earlier work
[2] = test system: patients having Major Depressive Disorder who also suffer from Treatment Resistant Depression; assay: Example 2: phase III double-blind active control Treatment Resistant Major Depressive Disorder study (MADRS), sequential HCl then HBr; assay type: in vivo, human; details: N=50
Description: A phase III double-blind study is conducted on a subset of patients having Major Depressive Disorder who also suffer from Treatment Resistant Depression. Exclusion criteria for this study are any patients suffering from seizures, known hypersensitivity to bupropion, eating disorders, schizophrenia or bipolar disorder. Inclusion criteria for this study are adult patients ages 18 through 64 who have taken two oral antidepressants of adequate dose and duration in the current episode of Major Depressive Disorder. The study includes a total of fifty patients (N=50). Initially, all patients are given a two-week washout from a previous oral antidepressant or are not currently taking an oral antidepressant. The patients are administered once daily bupropion HCl XL 150 mg, which is flexibly dosed to 300 mg by day 4 and 450 mg by day 11, to the extent required for treatment response and/or as tolerated. The treatment is continued for a total of six weeks. After six weeks, there is a five-day bupropion HCl XL washout. Next, the patients are administered once daily bupropion HBr XL 174 mg, which is flexibly dosed to 348 mg by day 4 and 522 mg by day 11, to the extent required for treatment response and/or as tolerated. This part of the study is continued for a total of six weeks. Measures are assessed based on weekly changes on the Montgomery Asberg Depression Rating Scale (MADRS) from baseline on bupropion HCl compared to bupropion HBr. Also, side effects leading to discontinuation on bupropion HCl compared to bupropion HBr are considered. The primary endpoint of the study is significant change in MADRS by week 6 on bupropion HBr compared to bupropion HCl. A secondary endpoint is statistically significant change in MADRS by week 2 on bupropion HBr compared to bupropion HCl.

[3] = test system: patients having Major Depressive Disorder who also suffer from Treatment Resistant Depression; assay: Example 3: study similar to Example 2 with two arms of 25 patients; assay type: in vivo, human; details: 25 patients per arm
Description: A similar study to that of Example 2 is also conducted, except that the 50 patients are broken into two arms—one arm of 25 patients taking bupropion HCl XL and the other arm of 25 patients taking bupropion HBr XL.

Structure (SMILES) | depression rating based on mean PHQ-9 depression scores (adult patients with TRD; 30 adult TRD patients) | mean PHQ-9 score on XL bupropion HCl (adult patients with TRD; 30 adult TRD patients, mean dose 300 mg/day (range 150-450 mg/day), mean duration 88.8 weeks, PHQ-9 range 0-27, baseline 20.9±4.3) | side effect: anxiety (adult patients with TRD; both, human) [patients] | side effect: gastrointestinal upset (adult patients with TRD; both, human) [patients] | side effect: insomnia (adult patients with TRD; both, human) [patients] | peak plasma concentration and area under the curve vs bupropion HCl extended-release 300 mg (bioequivalence) [1] | side effects leading to discontinuation compared to bupropion HCl [2] | efficacy in TRD (MADRS change) compared to bupropion HCl ([2]; 174-522 mg once daily, six weeks) | speed of effect compared to bupropion HCl ([2]; MADRS by week 2) | results of two-arm study compared to bupropion HCl XL [3] | mean PHQ-9 score on XL bupropion HBr (adult patients with TRD; 30 adult TRD patients, after 2 weeks on mean dose 348 mg/day (range 174-522 mg/day) after direct switch from XL bupropion HCl, t=-8.63, p<0.00001 vs HCl) | change in PHQ-9 questions (1), (3), (4), (5) and (7) on XL bupropion HBr compared to XL bupropion HCl (adult patients with TRD; all patients in the study of Example 1, each question rated 0 to 3) | side effect: anxiety (adult patients with TRD) | side effect: gastrointestinal upset (adult patients with TRD) | patient preference over the combination of bupropion HCl plus dextromethorphan (adult patients with TRD; subgroup of five patients who had previously failed the combination, due to improved antidepressant efficacy)
CC(NC(C)(C)C)C(=O)c1cccc(Cl)c1.Cl (racemic) [XL bupropion HCl, (±)-1-(3-chlorophenyl)-2-[(1,1-dimethylethyl)amino]-1-propanone hydrochloride] | moderately severe (Scores of 15-19 indicate moderately severe depression) | 15.3±5.3 | 19 | 2 | 21 | – | – | – | – | – | – | – | – | – | –
Br.CC(NC(C)(C)C)C(=O)c1cccc(Cl)c1 (centres unmarked) [XL bupropion HBr, bupropion hydrobromide] | mild (Scores of 5-9 indicate mild depression) | – | – | – | 3 | equivalent | fewer side effects leading to discontinuation | more effective | works faster | same as in Example 2 | 6.4±5.0 | improving by at least one point | resolved | resolved | All five patients in this subgroup preferred once-daily XL bupropion HBr
